This is an account of results in US20210395262A1, “INHIBITORS OF HUMAN IMMUNODEFICIENCY VIRUS REPLICATION” (ViiV HEALTHCARE UK (NO.5) LIMITED, priority 2018, published 2021).

One data set relates to recombinant NL4-3 virus. The experiment in a line: HIV cell culture assay (antiviral activity, luciferase readout in MT-2 cells). The class given is cell-based. Particulars: Human immunodeficiency virus 1, NL43, MT2. The method, boiled down:
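MT-2 cells infected for 4-5 days with NL4-3 reference virus carrying Renilla luciferase in place of part of nef, in presence of serial compound dilutions. Luciferase activity read with live-cell substrate. EC50 derived from median effect equation, slope parameter m.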

Data set [1] in a line: Compound cytotoxicity, XTT-based colorimetric assay. The format is cell-based. Particulars: human; uninfected MT2 cells, day 4, XTT; read-out: CC50. A digest of the protocol:
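Run under the antiviral-assay protocol but without virus. Viability was read on day 4 and CC50 values were derived from the readout.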
(In general: Tetrazolium dyes change colour on reduction, which living cells bring about.)

As a reminder, the EC50 is the concentration giving half of the maximal effect. In general, CC50 refers to the concentration at which the toxic effect on the cells reaches its halfway point. Take `C[C@@H]1CN(c2ccc3c(=O)n(-c4ccc(Cl)c5c(NS(=O)(=O)C6CC6)nn(CC(F)F)c45)c([C@H](Cc4cc(F)cc(F)c4)NC(=O)Cn4nc(C(F)F)cc4C(F)F)nc3c2)C[C@H](C)O1` (atropisomer, axis not shown; (P)) [Example 38, 2-(3,5-bis(difluoromethyl)-1H-pyrazol-1-yl)-N—((S)-1-((3P)-3-(4-chloro-3-(cyclopropanesulfonamido)-1-(2,2-difluoroethyl)-1H-indazol-7-yl)-7-((2S,6R)-2,6-dimethylmorpholino)-4-oxo-3,4-dihydroquinazolin-2-yl)-2-(3,5-difluorophenyl)ethyl)acetamide]: the EC50 with recombinant NL4-3 virus is 1.22 nM. Also, the CC50 at 4 days in data set [1] is more than 1000 nM.
For `O=C(Cn1nc(C(F)F)cc1C1CC1)N[C@@H](Cc1cc(F)cc(F)c1)c1nc2cc(N3CCCCC3)ccc2c(=O)n1-c1ccc(Cl)c2c(NS(=O)(=O)C3CC3)nn(CC(F)F)c12` (atropisomer, axis not shown; (P)) [Example 39, (S)—N-(1-((3P)-3-(4-chloro-3-(cyclopropanesulfonamido)-1-(2,2-difluoroethyl)-1H-indazol-7-yl)-4-oxo-7-(piperidin-1-yl)-3,4-dihydroquinazolin-2-yl)-2-(3,5-difluorophenyl)ethyl)-2-(5-cyclopropyl-3-(difluoromethyl)-1H-pyrazol-1-yl)acetamide], in the data set on recombinant NL4-3 virus, the EC50 worked out at 3.72 nM. In data set [1], the CC50 at 4 days was more than 1000 nM.
In the same order, the values of `O=C(Cn1nc(C(F)F)cc1C1CC1)N[C@@H](Cc1cc(F)cc(F)c1)c1nc2cc(N3CCOCC3)ccc2c(=O)n1-c1ccc(Cl)c2c(NS(=O)(=O)C3CC3)nn(CC(F)F)c12` (atropisomer, axis not shown; (P)) [Example 40, (S)—N-(1-((3P)-3-(4-chloro-3-(cyclopropanesulfonamido)-1-(2,2-difluoroethyl)-1H-indazol-7-yl)-7-morpholino-4-oxo-3,4-dihydroquinazolin-2-yl)-2-(3,5-difluorophenyl)ethyl)-2-(5-cyclopropyl-3-(difluoromethyl)-1H-pyrazol-1-yl)acetamide] are 0.361 nM and more than 1000 nM.
As to `Cn1nc(NS(C)(=O)=O)c2c(Cl)ccc(-n3c([C@H](Cc4cc(F)cc(F)c4)NC(=O)Cn4nc(C(F)F)c5c4C(F)(F)[C@@H]4C[C@H]54)nc4cc(NCC(F)F)ccc4c3=O)c21` (atropisomer, axis not shown; (P)) [Example 41, N—((S)-1-((3P)-3-(4-chloro-1-methyl-3-(methylsulfonamido)-1H-indazol-7-yl)-7-((2,2-difluoroethyl)amino)-4-oxo-3,4-dihydroquinazolin-2-yl)-2-(3,5-difluorophenyl)ethyl)-2-((3bS,4aR)-3-(difluoromethyl)-5,5-difluoro-3b,4,4a,5-tetrahydro-1H-cyclopropa[3,4]cyclopenta[1,2-c]pyrazol-1-yl)acetamide], the EC50 with recombinant NL4-3 virus is 0.174 nM. The CC50 at 4 days in data set [1] is more than 1000 nM.
In the same order, the values of `Cn1nc(NS(C)(=O)=O)c2c(Cl)ccc(-n3c([C@H](Cc4cc(F)cc(F)c4)NC(=O)Cn4nc(C(F)F)c5c4C(F)(F)[C@@H]4C[C@H]54)nc4cc(NCC(F)(F)F)ccc4c3=O)c21` (atropisomer, axis not shown; (P)) [Example 42, N—((S)-1-((3P)-3-(4-chloro-1-methyl-3-(methylsulfonamido)-1H-indazol-7-yl)-4-oxo-7-((2,2,2-trifluoroethyl)amino)-3,4-dihydroquinazolin-2-yl)-2-(3,5-difluorophenyl)ethyl)-2-((3bS,4aR)-3-(difluoromethyl)-5,5-difluoro-3b,4,4a,5-tetrahydro-1H-cyclopropa[3,4]cyclopenta[1,2-c]pyrazol-1-yl)acetamide] are 0.11 nM and more than 1000 nM.
In the same order, the values of `C[C@@H]1CN(c2ccc3c(=O)n(-c4ccc(Cl)c5c(NS(C)(=O)=O)nn(CC(F)F)c45)c([C@H](Cc4cc(F)cc(F)c4)NC(=O)Cn4nc(C(F)(F)F)c5ccccc54)nc3c2)C[C@H](C)O1` (atropisomer, axis not shown; (P)) [Example 43, N—((S)-1-((3P)-3-(4-chloro-1-(2,2-difluoroethyl)-3-(methylsulfonamido)-1H-indazol-7-yl)-7-((2S,6R)-2,6-dimethylmorpholino)-4-oxo-3,4-dihydroquinazolin-2-yl)-2-(3,5-difluorophenyl)ethyl)-2-(3-(trifluoromethyl)-1H-indazol-1-yl)acetamide] are 1.2 nM and more than 500 nM.
In the same order, the values of `C[C@@H]1CN(c2ccc3c(=O)n(-c4ccc(Cl)c5c(NS(C)(=O)=O)nn(CC(F)F)c45)c([C@H](Cc4cc(F)cc(F)c4)NC(=O)Cn4nc(C5CC5)c5ccccc54)nc3c2)C[C@H](C)O1` (atropisomer, axis not shown; (P)) [Example 44, N—((S)-1-((3P)-3-(4-chloro-1-(2,2-difluoroethyl)-3-(methylsulfonamido)-1H-indazol-7-yl)-7-((2S,6R)-2,6-dimethylmorpholino)-4-oxo-3,4-dihydroquinazolin-2-yl)-2-(3,5-difluorophenyl)ethyl)-2-(3-cyclopropyl-1H-indazol-1-yl)acetamide] are 0.59 nM and more than 500 nM.
For `C[C@@H]1CN(c2ccc3c(=O)n(-c4ccc(Cl)c5c(NS(C)(=O)=O)nn(CC(F)F)c45)c([C@H](Cc4cc(F)cc(F)c4)NC(=O)Cn4nc(C(F)(F)F)c5c4C(F)(F)[C@@H]4C[C@H]54)nc3c2)C[C@H](C)O1` (atropisomer, axis not shown; (P)) [Example 45, N—((S)-1-((3P)-3-(4-chloro-1-(2,2-difluoroethyl)-3-(methylsulfonamido)-1H-indazol-7-yl)-7-((2S,6R)-2,6-dimethylmorpholino)-4-oxo-3,4-dihydroquinazolin-2-yl)-2-(3,5-difluorophenyl)ethyl)-2-((3bS,4aR)-5,5-difluoro-3-(trifluoromethyl)-3b,4,4a,5-tetrahydro-1H-cyclopropa[3,4]cyclopenta[1,2-c]pyrazol-1-yl)acetamide], the EC50 in the data set with recombinant NL4-3 virus is 0.1 nM. In addition, the CC50 at 4 days in data set [1] was more than 500 nM.
Consider `C[C@@H]1CN(c2ccc3c(=O)n(-c4ccc(Cl)c5c(NS(C)(=O)=O)nn(CC(F)F)c45)c([C@H](Cc4cc(F)cc(F)c4)NC(=O)Cn4nc(C5CC5)cc4C(F)F)nc3c2)C[C@H](C)O1` (atropisomer, axis not shown; (P)) [Example 47, N—((S)-1-((3P)-3-(4-chloro-1-(2,2-difluoroethyl)-3-(methylsulfonamido)-1H-indazol-7-yl)-7-((2S,6R)-2,6-dimethylmorpholino)-4-oxo-3,4-dihydroquinazolin-2-yl)-2-(3,5-difluorophenyl)ethyl)-2-(3-cyclopropyl-5-(difluoromethyl)-1H-pyrazol-1-yl)acetamide], for which the EC50 with recombinant NL4-3 virus amounted to 0.96 nM. Besides, the CC50 at 4 days in data set [1] is more than 500 nM.
The like results for `C[C@@H]1CN(c2ccc3c(=O)n(-c4ccc(Cl)c5c(NS(C)(=O)=O)nn(CC(F)F)c45)c([C@H](Cc4cc(F)cc(F)c4)NC(=O)Cn4ccc(C5CC5)n4)nc3c2)C[C@H](C)O1` (atropisomer, axis not shown; (P)) [Example 48, N—((S)-1-((3P)-3-(4-chloro-1-(2,2-difluoroethyl)-3-(methylsulfonamido)-1H-indazol-7-yl)-7-((2S,6R)-2,6-dimethylmorpholino)-4-oxo-3,4-dihydroquinazolin-2-yl)-2-(3,5-difluorophenyl)ethyl)-2-(3-cyclopropyl-1H-pyrazol-1-yl)acetamide] were, in that order, 0.44 nM and more than 500 nM.
